Data published in PMC7083148, “Identification of a General Odorant Receptor for Repellents in the Asian Corn Borer Ostrinia furnacalis” (Frontiers in Physiology, 2020).
pEC50: −log10 of the molar value.

biological target: T1, OfurOR27 (Ostrinia furnacalis, UniProt A0A0E4B5I0); test: two-electrode voltage clamp in Xenopus oocytes co-expressing OfurOR27/OfurOrco, dose-response; format: cell-based
T1 construct: gene OR27; full-length ORF (402 amino acids); with OfurOrco (OfurOR2)
T1 sequence (A0A0E4B5I0 1-401): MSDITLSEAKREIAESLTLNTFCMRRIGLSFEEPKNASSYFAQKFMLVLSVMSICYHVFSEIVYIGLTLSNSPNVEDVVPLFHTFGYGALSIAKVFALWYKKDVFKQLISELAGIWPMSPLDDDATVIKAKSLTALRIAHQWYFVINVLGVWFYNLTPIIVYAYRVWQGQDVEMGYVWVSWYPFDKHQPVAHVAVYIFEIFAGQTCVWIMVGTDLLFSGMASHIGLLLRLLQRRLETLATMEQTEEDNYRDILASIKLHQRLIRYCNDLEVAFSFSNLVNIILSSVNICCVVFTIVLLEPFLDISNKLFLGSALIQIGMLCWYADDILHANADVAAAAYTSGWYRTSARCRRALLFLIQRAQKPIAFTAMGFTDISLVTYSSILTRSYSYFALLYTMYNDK
T1 sequence (A0A0E4B591 1-474 partner): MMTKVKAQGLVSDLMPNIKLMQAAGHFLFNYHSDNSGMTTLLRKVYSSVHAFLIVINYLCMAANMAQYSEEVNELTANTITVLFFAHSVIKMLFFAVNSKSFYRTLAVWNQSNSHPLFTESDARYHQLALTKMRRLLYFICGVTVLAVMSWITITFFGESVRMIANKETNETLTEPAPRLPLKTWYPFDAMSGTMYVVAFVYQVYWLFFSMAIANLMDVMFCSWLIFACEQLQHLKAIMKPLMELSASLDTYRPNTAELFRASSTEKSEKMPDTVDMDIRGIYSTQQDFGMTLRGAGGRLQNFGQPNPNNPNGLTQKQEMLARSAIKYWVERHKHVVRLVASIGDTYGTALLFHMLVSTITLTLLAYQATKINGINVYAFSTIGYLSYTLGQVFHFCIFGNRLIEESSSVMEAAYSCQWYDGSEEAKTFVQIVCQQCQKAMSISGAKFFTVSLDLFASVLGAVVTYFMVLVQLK

In order of falling pEC50:
1. CCCCCCCCC=O [nonanal]  6.43
2. CCCCCCCC=O [octanal]  5.93
3. CCCCCCCCO [1-octanol]  4.85
